From publication PMC3334918, “Mutagenesis and Functional Studies with Succinate Dehydrogenase Inhibitors in the Wheat Pathogen Mycosphaerella graminicola” (PLoS ONE, 2012)

Legend:
Test in all cases: in vivo sensitivity, liquid culture growth (AE media)
Assay type in all cases: cell-based, Mycosphaerella graminicola
[1] = test system: M. graminicola strain Bos59 (SDHB_H267Q); conditions: B_H267Q, ratio IC50mutant/IC50WT
Experimental: (§1) To explore the sensitivity profiles conferred by amino acid substitutions at the cellular and mitochondrial level, we determined sensitivity towards 4 different compounds for 26 of the identified substitution types both in vivo using liquid culture growth (AE media) and in vitro using purified mitochondria and the succinate: Q0/DCPIP activity test (Table 3). […] Resistance factors (RF) were determined as the ratio IC50mutant/IC50WT. […] Qp site mutations are well known to influence SDH enzyme activity and stability upon catalysis, [13], [38], [41].
(§2) Conidial cells were collected from 4 day old V8 agar plates (cultured at 18°C in the dark) using liquid AE and a cell spreader. Cell density was determined and cells re-suspended to a concentration of 5×10^5 cells ml^−1 in AE media. Sterile 96 wells microtiter plates with lids (Costar) were inoculated with 198 µl of this cell suspension (10^5 cells per well) and 2 µl of inhibitor (100× in DMSO). Final inhibitor concentrations were between 0.95 nM and 1 mM with uniform 4× dilution factor steps (11 inhibitor concentrations+1 DMSO control). Plates were incubated for 6 days at 19°C in the dark before cells were re-suspended and measured for growth (OD600 nm). IC50 values were determined by non linear curve fitting on the basis of measured OD values versus log inhibitor concentrations (GraphPad Prism 5.0 software).

[2] = test system: M. graminicola strain Cbx1 (SDHB_I269V); conditions: B_I269V, ratio IC50mutant/IC50WT
Experimental: as §1, §2

[3] = test system: M. graminicola strain Cbx101 (SDHD_D129S); conditions: D_D129S, ratio IC50mutant/IC50WT
Experimental: as §1, §2

[4] = test system: M. graminicola strain Flu4 (SDHC_A84V); conditions: C_A84V, ratio IC50mutant/IC50WT
Experimental: as §1, §2

[5] = test system: M. graminicola strain Flu9 (SDHC_R87C); conditions: C_R87C, ratio IC50mutant/IC50WT
Experimental: as §1, §2

[6] = test system: M. graminicola strain Izm1 (SDHC_H152R); conditions: C_H152R, ratio IC50mutant/IC50WT
Experimental: as §1, §2

## CC(C)C1C2CCC1c1c(NC(=O)c3cn(C)nc3C(F)F)cccc12 (stereo not drawn) [Isopyrazam]
[1]
  Resistance Factors (RFs) in vivo: 12.5
[2]
  Resistance Factors (RFs) in vivo: 5.0
[3]
  Resistance Factors (RFs) in vivo: 10.8
[4]
  Resistance Factors (RFs) in vivo: 3.5
[5]
  Resistance Factors (RFs) in vivo: 3.7
[6]
  Resistance Factors (RFs) in vivo: 133.9
